From the supplement of paper PMC4862054
“And” between values parts separate entries of the source, which are not always exact repeats. Identical values can stand only once.

Key:
Details in all cases: incubation time: 72 h
MDA-MB-453 [1] = assay: normalised viability (% of control), CellTiter-Blue; higher = more viable cells (about 100 = DMSO control)
Summary of the method: (§1)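 Normalised viability is given for a single listed concentration of the series. In 384-well plates, breast cancer cell lines were incubated 72 h with compound, then read with CellTiter-Blue (2 h, 37 °C) at 560/590 nm. Per-plate scaling set vehicle to 100 and a positive kill control to 0, with Z'-factor quality control.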

CAL-148 [2] = assay: as above
Summary of the method: as §1

DU-4475 [3] = assay: as above
Summary of the method: as §1

HCC1599 = assay: normalised response (% of control), CellTiter-Glo; higher = more viable cells (100 = DMSO, 0 = benzethonium chloride kill control)
Summary of the method: (§2)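 The table gives the normalised signal for a single concentration in each entry. Breast cancer cell lines were seeded (20 µl suspension) into 384-well plates holding compound at 5 concentrations in 10-fold steps over a compound-specific 10,000-fold range and incubated 72 h, then read for CellTox Green fluorescence (485/520 nm) and CellTiter-Glo luminescence. Normalisation on each plate used 0.1 % DMSO (100) and a positive kill control (0).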

HCC1143 = assay: as above
Summary of the method: as §2

BT-474 = assay: as above
Summary of the method: as §2

CAL-85-1 = assay: as above
Summary of the method: as §2

HDQ-P1 = assay: as above
Summary of the method: as §2

Hs578T = assay: as above
Summary of the method: as §2

SK-BR-3 = assay: as above
Summary of the method: as §2

CAL-51 = assay: as above
Summary of the method: as §2

MDA-MB-436 = assay: as above
Summary of the method: as §2

HCC1937 = assay: as above
Summary of the method: as §2

CAL-120 = assay: as above
Summary of the method: as §2

MDA-MB-468 = assay: as above
Summary of the method: as §2

MDA-MB-453 [4] = assay: as above
Summary of the method: as §2

BT-549 = assay: as above
Summary of the method: as §2

MDA-MB-231 = assay: as above
Summary of the method: as §2

MCF-10A = assay: as above
Summary of the method: as §2

CAL-148 [5] = assay: as above
Summary of the method: as §2

MFM-223 = assay: as above
Summary of the method: as §2

DU-4475 [6] = assay: as above
Summary of the method: as §2

SMILES | normalised viability (MDA-MB-453 [1]) | normalised viability (CAL-148 [2]) | normalised viability (DU-4475 [3]) | normalised response (HCC1599) [%] | normalised response (HCC1143) [%] | normalised response (BT-474) [%] | normalised response (CAL-85-1) [%] | normalised response (HDQ-P1) [%] | normalised response (Hs578T) [%] | normalised response (SK-BR-3) [%] | normalised response (CAL-51) [%] | normalised response (MDA-MB-436) [%] | normalised response (HCC1937) [%] | normalised response (CAL-120) [%] | normalised response (MDA-MB-468) [%] | normalised response (MDA-MB-453 [4]) [%] | normalised response (BT-549) [%] | normalised response (MDA-MB-231) [%] | normalised response (MCF-10A) [%] | normalised response (CAL-148 [5]) [%] | normalised response (MFM-223) [%] | normalised response (DU-4475 [6]) [%]
O=C(CCCCCCC(=O)Nc1ccccc1)NO [Vorinostat] (10000 nM) | 3.12% and 2.8% | 13.3% and 16% | 50.1% and 46.5% | 8.35 | 24.4 | 17.3 | 44.2 | 64.3 | 34 | 14.1 | 22.8 | 52.2 | 43.6 | 46.1 | 22 | 3.2 | 47.7 | 15 | 43.3 | 29.6 | 31.5 | 27.8
CC(C)C[C@H](NC(=O)[C@@H](COC(C)(C)C)NC(=O)[C@H](Cc1ccc(O)cc1)NC(=O)[C@H](CO)NC(=O)[C@H](Cc1c[nH]c2ccccc12)NC(=O)[C@H](Cc1cnc[nH]1)NC(=O)[C@@H]1CCC(=O)N1)C(=O)N[C@@H](CCCNC(=N)N)C(=O)N1CCC[C@H]1C(=O)NNC(N)=O [Goserelin] (10000 nM) | 89.8% | 102% | 104% | 97.5 | 101 | 92.6 | 93.8 | 101 | 96.5 | 102 | 113 | 97.7 | 96 | 94.8 | 93.7 | 101 | 101 | 101 | 100 | 91.2 | 98.9 | 97.1
CCNC(=O)c1noc(-c2cc(C(C)C)c(O)cc2O)c1-c1ccc(CN2CCOCC2)cc1 [NVP-AUY922] (1000 nM) | 7.53% | 18.6% | 2.34% | 77 | 38 | 25.6 | 21 | 23.6 | 35.6 | 39.4 | 13.5 | 50.9 | 28.3 | 47.9 | 22.6 | 26.3 | 39.8 | 24.9 | 16.7 | 29.3 | 36.3 | -0.14
CNC(=O)c1ccccc1Sc1ccc2c(/C=C/c3ccccn3)n[nH]c2c1 [Axitinib] (10000 nM) | 46.2% | 42.1% | 21.1% | 69 | 79 | 80.4 | 120 | 77.8 | 61.4 | 77 | 38.6 | 64.1 | 79.2 | 75.8 | 24.5 | 113 | 49.7 | 94.5 | 78.6 | 67 | 49.3 | 76
COc1cc(Nc2c(C#N)cnc3cc(OCCCN4CCN(C)CC4)c(OC)cc23)c(Cl)cc1Cl [Bosutinib] (10000 nM) | 4.44% | 9.6% | 4.38% | 13.5 | 46.6 | 2.86 | 0.33 | 9.28 | 48.5 | 1.81 | 25 | 5.63 | 5.6 | 43.4 | 1.43 | 6.11 | 15.6 | 0.86 | 1.72 | 33.3 | 41.2 | 70
CC1(C)CCC(c2ccc(Cl)cc2)=C(CN2CCN(c3ccc(C(=O)NS(=O)(=O)c4ccc(N[C@H](CCN5CCOCC5)CSc5ccccc5)c(S(=O)(=O)C(F)(F)F)c4)cc3)CC2)C1 [Navitoclax] (10000 nM) | 52.7% | 66.7% | 4.02% | 93.1 | 77.8 | 23.5 | 86.2 | 66.8 | 79.3 | 73.2 | 74.5 | 90.7 | 56.9 | 37.4 | 78 | 60.3 | 86.7 | 16.1 | 92.5 | 72.4 | 55.6 | 72.4
CO[C@@H]1[C@H](N(C)C(=O)c2ccccc2)C[C@H]2O[C@]1(C)n1c3ccccc3c3c4c(c5c6ccccc6n2c5c31)C(=O)NC4 [Midostaurin] (10000 nM) | 61.4% | 86.3% | 3.76% | 102 | 45.9 | 41.7 | 76 | 54.4 | 16.8 | 45.2 | 11.5 | 68.8 | 50.1 | 46.2 | 29.4 | 110 | 4.02 | 40.7 | 24.9 | 88.1 | 66.5 | 34.1
C=CCn1c(=O)c2cnc(Nc3ccc(N4CCN(C)CC4)cc3)nc2n1-c1cccc(C(C)(C)O)n1 [MK1775] (10000 nM) | 15.2% | 5.88% | 2.68% | 4.65 | 17.5 | 29.4 | 11.4 | 17.4 | 22 | 8.92 | 8.21 | 15.8 | 28.3 | 22.8 | 6.6 | 44 | 6.99 | 23.7 | 19 | 9.04 | 36.1 | 11.9
Nc1ccn([C@@H]2O[C@H](CO)[C@@H](O)C2(F)F)c(=O)n1 [Gemcitabine] (1000 nM) | 1.2% | 0.25% | 11.2% | 41.4 | 38.9 | 74.2 | 40.5 | 82.8 | 74.9 | 42.7 | 34 | 30.7 | 85.8 | 73 | 22.1 | 74.5 | 44.7 | 79.5 | 65.8 | 51 | 97.7 | 78.5
